Data on 55 molecules can be found in PubChem BioAssay AID977613 (Broad Institute, 2014).

Active and inactive are the calls of the source. No rule for the calls is given here.

For the assay, the system named is Broad 7084-01 inhibitor HTS, set 2. The assay is described as follows: single-concentration hits, screen 7084 set 2 (AID 977613).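 Also: host cells are infected with parasite promastigotes that become internalized.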
For `CCC(=O)N1[C@@H](CO)[C@@H]2c3ccccc3N(S(=O)(=O)c3ccccc3C)C[C@@H]21`, the active concentration was > 10 µM (inactive). In the case of `COc1ccc2c3c(n(C)c2c1)[C@H](CO)N(C(=O)Nc1ccccc1F)CC31CN(C(=O)c2ccccc2F)C1`, the active concentration is > 10 µM (inactive). As for `COCC(=O)N1[C@@H]2CNc3ccccc3[C@@H]2[C@@H]1CO`, the active concentration is > 10 µM (inactive). As for `Cc1ccc(-c2ccccc2[C@@H]2[C@H](C#N)N(C(=O)c3cccc(F)c3)[C@H]2CO)cc1`, the active concentration was > 10 µM (inactive). For the molecule `O=C(c1ccccc1)N1CC(=O)N2[C@H](CO)[C@H](c3ccc(-c4ccccc4)cc3)[C@@H]2C1`, the active concentration is > 10 µM (inactive). As for `Cc1ccc(S(=O)(=O)N2CC[C@H]3[C@H](CO)Nc4ccc(C#Cc5ccc(F)cc5)cc4[C@H]32)cc1`, the active concentration was > 10 µM (inactive). With `CCN1CC(=O)N2[C@H](CO)[C@H](c3ccc(Br)cc3)[C@@H]2C1`, the active concentration was > 10 µM (inactive).

With `O=C(C1CCOCC1)N1C[C@H]2[C@@H](c3ccccc31)[C@@H](CO)N2C(=O)Cc1ccccc1`, the active concentration was > 10 µM (inactive). `CCC(=O)N1CC2(C1)[C@@H](c1ccc(-c3ccc(F)cc3)cc1)[C@@H](CO)N2C(=O)CC`: the active concentration is > 10 µM (inactive).

Turning to `CC=Cc1ccc2n(c1=O)C[C@@H]1[C@@H](CO)[C@H](C(=O)N[C@@H](C)c3ccccc3)N(C(=O)c3cnccn3)[C@H]21` (mixture of isomers), the active concentration was > 10 µM (inactive). As to `CN1CCN(C(=O)C[C@H]2CC[C@@H]3[C@H](COC[C@H](O)CN3C(=O)C3CC3)O2)CC1`, the active concentration was > 10 µM (inactive). The same measure for `O=C(C1CCCCC1)N1CC(=O)N2[C@H](CO)[C@H](c3ccc(-c4ccccc4F)cc3)[C@@H]2C1`: > 10 µM (inactive); for `CCC(=O)N1CC(=O)N2[C@H](CO)[C@H](c3ccc(-c4ccc(C#N)cc4)cc3)[C@H]2C1`: > 10 µM (inactive).

As for `CC(=O)N1CC[C@@H]2[C@@H](CO)Nc3ccc(C#Cc4cccnc4)cc3[C@@H]21`, the active concentration is > 10 µM (inactive). As for `COc1ccccc1-c1ccccc1[C@H]1[C@@H](CO)N(C(=O)C2CCOCC2)[C@H]1C#N`, the active concentration is > 10 µM (inactive). On to `O=C(NC1Cc2ccccc2C1)[C@H]1N[C@H]2c3cccc(=O)n3C[C@H]2[C@@H]1CO`, for which the active concentration was > 10 µM (inactive).

As to `CC(C)C#Cc1ccc([C@H]2[C@H](CO)N3C(=O)CN(C(=O)c4ccc5c(c4)OCO5)C[C@@H]23)cc1`, the active concentration was > 10 µM (inactive). Consider `Cc1cccc(S(=O)(=O)N2C[C@@H](O)COC[C@@H]3O[C@H](CC(=O)Nc4ccccc4)CC[C@H]32)c1`, for which the active concentration is > 10 µM (inactive). As to `N#C[C@H]1[C@H](c2ccccc2-c2ccccc2F)[C@@H](CO)N1C(=O)Cc1ccccc1`, the active concentration is > 10 µM (inactive). Turning to `O=C(C[C@@H]1CC[C@@H]2[C@H](COC[C@@H](O)CN2S(=O)(=O)c2cccc(Cl)c2)O1)Nc1ccc(-c2ccccc2)cc1`, the active concentration was > 10 µM (inactive). The value for `CC=Cc1ccc2n(c1=O)C[C@H]1[C@H](CO)[C@@H](C(=O)NCC)[C@@H]2N1Cc1cccc(Cl)c1` (mixture of isomers) was > 10 µM (inactive). On to `CN1CCN(C(=O)C[C@@H]2CC[C@H]3[C@@H](COC[C@@H](O)CN3C(=O)C3CC3)O2)CC1`, for which the active concentration was > 10 µM (inactive). With `O=C1CNC[C@H]2[C@@H](c3ccc(C4=CCCC4)cc3)[C@H](CO)N12`, the active concentration is > 10 µM (inactive). `CCCNC(=O)[C@@H]1[C@@H](CO)[C@@H]2Cn3c(cccc3=O)[C@@H]2N1C`: the active concentration was > 10 µM (inactive). The same measure for `O=C(C[C@@H]1CC[C@H]2[C@@H](COC[C@H](O)CN2Cc2ccc(Cl)cc2)O1)NCc1ccccc1Cl`: > 10 µM (inactive).

Regarding `COc1ccccc1-c1ccccc1[C@H]1[C@H](C#N)N(C(=O)CN(C)C)[C@H]1CO`, the active concentration was > 10 µM (inactive). On to `CCCN1[C@H](C(=O)NCCCN2CCOCC2)[C@@H](CO)[C@@H]2Cn3c(ccc(-c4ccncc4)c3=O)[C@@H]21`, for which the active concentration is > 10 µM (inactive).

On to `O=C(CN1CCOCC1)N1CC2(C1)[C@@H](c1ccccc1)[C@@H](CO)N2Cc1ccc(F)cc1`, for which the active concentration was > 10 µM (inactive).

For `COc1cccc(NC(=O)N2CC(=O)N3[C@@H](CO)[C@H](c4ccc(C5=CCCCC5)cc4)[C@@H]3C2)c1`, the active concentration is > 10 µM (inactive). The same measure for `CC=Cc1ccc2n(c1=O)C[C@H]1[C@H](CO)[C@@H](C(=O)OC)N(CCc3ccccc3)[C@@H]21` (mixture of isomers): > 10 µM (inactive); for `Cc1cccc(S(=O)(=O)N2CC[C@@H]3[C@H](CO)Nc4ccc(C#Cc5ccccc5F)cc4[C@@H]32)c1`: > 10 µM (inactive); for `O=C(Nc1ccc(F)cc1)N1CC(=O)N2[C@H](CO)[C@@H](c3ccc(C#Cc4cccnc4)cc3)[C@H]2C1`: > 10 µM (inactive). With `CN(C)C(=O)C[C@@H]1CC[C@@H]2[C@H](COC[C@H](O)CN2CC2CCCC2)O1`, the active concentration is > 10 µM (inactive). For `COc1cccc(C(=O)N2C[C@H]3[C@@H](c4ccccc42)[C@H](CO)N3Cc2ccccc2Cl)c1`, the active concentration is under 10 µM. The value for `Cc1ccc(CN2CC(=O)N3[C@H](CO)[C@@H](c4ccc(-c5ccccc5F)cc4)[C@H]3C2)cc1` was > 10 µM (inactive); that for `O=C(CC1CC1)N1[C@H](CO)[C@@H](c2ccccc2)C12CN(Cc1cccnc1)C2` was > 10 µM (inactive); that for `CCCNC(=O)N1CC(=O)N2[C@H](CO)[C@@H](c3ccc(C#CCC4CCCC4)cc3)[C@H]2C1` was > 10 µM (inactive). For `CC(=O)N1CC2(C1)[C@H](c1ccc(-c3cccc(C#N)c3)cc1)[C@H](CO)N2CCC(F)(F)F`, the active concentration was > 10 µM (inactive).

For the molecule `CCC(=O)N1CC(=O)N2[C@H](CO)[C@H](c3ccc(-c4ccc(C#N)cc4)cc3)[C@@H]2C1`, the active concentration was > 10 µM (inactive). The value for `CCCNC(=O)N1CC(=O)N2[C@@H](CO)[C@@H](c3ccc(C#CCC4CCCC4)cc3)[C@@H]2C1` was > 10 µM (inactive); that for `O=C(C[C@@H]1CC[C@@H]2[C@H](COC[C@@H](O)CN2Cc2ccc3c(c2)OCO3)O1)Nc1ccccc1` was > 10 µM (inactive). The same measure for `O=C(C[C@@H]1CC[C@@H]2[C@H](COC[C@@H](O)CN2Cc2cccc(C(F)(F)F)c2)O1)NCc1ccccc1`: > 10 µM (inactive); for `O=C(c1ccccc1F)N1CC(=O)N2[C@H](CO)[C@@H](c3ccc(C#Cc4ccccc4)cc3)[C@@H]2C1`: > 10 µM (inactive); for `O=C(Cc1ccccc1)N1CC[C@@H]2[C@H](CO)Nc3ccc(C4=CCCCC4)cc3[C@@H]21`: > 10 µM (inactive).

In the case of `CN(C)C(=O)C[C@@H]1CC[C@H]2[C@H](COc3ccc(NC(=O)c4ccc(F)cc4)cc3C(=O)N2C)O1`, the active concentration was > 10 µM (inactive). Consider `O=C(C[C@H]1CC[C@@H]2[C@H](COC[C@H](O)CN2C(=O)c2ccccc2F)O1)NCc1ccccc1`, for which the active concentration was > 10 µM (inactive).

For the molecule `CCCC(=O)N1CC2(C1)CN(C(=O)c1ccc(F)cc1)[C@H](CO)c1[nH]c3cc(OC)ccc3c12`, the active concentration is > 10 µM (inactive).

With `Cc1ccccc1S(=O)(=O)N1CCCCN2[C@H](C1)[C@@H](c1ccc(C#CCN(C)C)cc1)[C@@H]2CO`, the active concentration is > 10 µM (inactive). The same measure for `O=C(NC1Cc2ccccc2C1)[C@H]1[C@H](CO)[C@H]2Cn3c(cccc3=O)[C@@H]1N2C(=O)CC1CC1`: > 10 µM (inactive). In the case of `O=C(c1cccnc1)N1C[C@H]2[C@@H](c3ccccc31)[C@@H](CO)N2C(=O)CN1CCOCC1`, the active concentration was > 10 µM (inactive). As to `O=C(C[C@@H]1CC[C@@H]2[C@H](COC[C@H](O)CN2C(=O)c2ccccc2F)O1)NCc1ccccc1`, the active concentration is > 10 µM (inactive). As to `O=C(C1CCOCC1)N1CC(=O)N2[C@H](CO)[C@H](c3ccc(C#CCc4ccccc4)cc3)[C@@H]2C1`, the active concentration is > 10 µM (inactive). For the molecule `O=C(C[C@@H]1CC[C@H]2[C@@H](COC[C@@H](O)CN2CC2CC2)O1)NCc1ccc(Cl)cc1`, the active concentration was > 10 µM (inactive). In the case of `COCC(=O)N1CC2(CCN(Cc3cccnc3)CC2)c2c(n(C)c3cc(OC)ccc23)[C@@H]1CO`, the active concentration was > 10 µM (inactive). For the molecule `CCCNC(=O)N1[C@H](CO)[C@@H]2c3ccccc3N(C(=O)C3CCC3)C[C@@H]21`, the active concentration was > 10 µM (inactive).
